Consider 4 compounds from PMC10299588, “Bromotyrosine-Derived Metabolites from a Marine Sponge Inhibit Pseudomonas aeruginosa Biofilms” (International Journal of Molecular Sciences, 2023).

Holding throughout (type): cell-based, Pseudomonas aeruginosa
Series [1] has as its system outer membrane of wild-type PAO1 cells. Put plainly: NPN uptake assay (outer membrane permeability). Particulars: PAO1 pre-treated with 100 µM CCCP, 30 min; polymyxin B at 6.4 and 10 µg/mL. The procedure: The effect of ianthelliformisamines on the permeability of the outer membrane was determined using an NPN uptake assay. NPN (1-N-phenylnapthylamine), a hydrophobic fluorescent probe, is excluded from the intact outer membranes of Gram-negative bacteria such as P. aeruginosa. It intensely fluoresces once it gains access to the phospholipid layer of membrane-compromised cells (Figure 5A). The experiments were conducted with different concentrations of ianthelliformisamines and sub-inhibitory doses of ciprofloxacin. […] The level of fluorescence intensity in bacteria challenged with test compounds, even at highest testing concentrations, resembled that in cells treated with DMSO.
The permeability of the outer membrane upon exposure to test compounds was assessed using a 1-N-phenylnapthylamine (NPN) uptake assay. An overnight culture of PAO1 was grown to an OD600 of 0.5, centrifuged, washed with HEPES buffer (5 mM, pH 7.2), and re-suspended in HEPES buffer containing 100 µM CCCP. […] Ninety microliters of the cell suspension were added to the flat-bottomed, black 96-well plate containing 10 µL of test compounds, and the NPN fluorescence was immediately monitored using a BioTek Synergy H1 Hybrid microplate reader at an excitation of 350 nm and an emission of 420 nm every min for 30 min. […]

The test system of series [2] is planktonic P. aeruginosa PAO1. The experiment in a line: Minimum inhibitory concentration (MIC) determination. Conditions: Pseudomonas aeruginosa; planktonic (free-living) PAO1, LB medium, 18 h, 37 °C. How it is done: The minimum inhibitory concentration (MIC) of compounds and antibiotics were performed as previously described, with minor modification. […] Three antibiotics, including tobramycin, ciprofloxacin, and meropenem, were dissolved in water and filter sterilized. Ten microliters of two-fold serially diluted antibiotics were transferred to a 96-well Costar plate (Corning Inc., Corning, MA, USA) followed by the addition of 90 µL of diluted cultures. After an 18-h incubation at 37 °C in the static condition, optical density OD600 was monitored using a Synergy 2 microplate reader (BioTek, Winooski, VT, USA). […] The MIC was determined as the lowest concentrations of antibiotics that inhibit complete bacterial growth compared to growth control.

A further series deals with PAO1ΔpslA biofilms. The experiment in a line: Fluorescence microscopy of biofilms (SYTO9/propidium iodide). Particulars: alone. The procedure:
(§1) Biofilms of wild-type PAO1 and isogenic biofilm matrix component mutants were treated with ianthelliformisamines or ciprofloxacin alone and the combinations. Their biofilms were simultaneously stained with SYTO9 (green) and propidium iodide (red). Cells with intact membranes were stained green, while cells with compromised membranes were stained red.
(§2) For biofilm bacteria imaging, bacteria were cultured, treated with test compounds, and washed, as previously mentioned in the biofilm inhibition assay. The biofilm bacteria were stained using a LIVE/DEAD BacLight bacterial viability kit (Molecular Probes, Inc., Eugene, OR, USA), which consists of SYTO9 (green; staining cells with intact membrane) and propidium iodide (red; staining cells with compromised membrane). Images were captured using a high-content imaging system Operetta CLS (Perkin Elmer, Waltham, MA, USA) with a 60× water-immersion objective.

In the next series the test system is PDO300Δalg8 biofilms. The series is described as above. The procedure:
as §1, §2

The next series has as its system PAO1 biofilms. The description is as above. How it is done: as §1, §2
The test system of another series is PDO300 biofilms. The description is as above. How it is done: as §1, §2
The next series concerns PAO1ΔpelF biofilms. How it is done:
as §1, §2

The subject of series [3] is PAO1ΔpelF (Pel deletion mutant). Put plainly: Biofilm inhibition assay (OD600 growth and resazurin biofilm viability). Conditions: ciprofloxacin alone, sub-MIC. How it is done:
(§3) Figure 2 Biofilm assays to identify compounds that prevent biofilm formation. Biofilm inhibition assay. P. aeruginosa cultures were seeded into 384-well plates after dispensing compounds and antibiotics. The plates were incubated for 24 h at 37 °C followed by recording bacterial growth (OD600) and measuring the viability of biofilm bacteria using resazurin.
(§4) The overnight cultures at 37 °C in LB medium were washed once with sterile saline 0.9% (w/v) and adjusted to an OD600 of 0.05, and 1% inoculum was transferred into a fresh LB medium. Following incubation at 37 °C, 200 rpm for 6–6.5 h to reach the mid-log phase, the cells were washed once with sterile saline 0.9% and diluted to an OD600 of 0.01. Then, 45 µL aliquots were dispensed into 384-well plates (Greiner Bio-One, Kremsmünster, Austria, catalog no. 781091). In biofilm inhibition assays, test compounds (5 µL) were loaded prior to the addition of bacteria. The plates were incubated for 24 h at 37 °C in static conditions. The effects of compounds on bacterial growth and viability of biofilm bacteria were determined by the OD600 and resazurin metabolic assay, respectively. The final concentrations of DMSO in the assays were 1–2%. The negative controls or untreated cultures consisted of inoculum and different concentrations of DMSO. Antibiotic ciprofloxacin (0.25 µg/mL and 25 µg/mL) was used as positive controls. The initial OD600 and final OD600 were read before incubation at 37 °C and after 24 h incubation, respectively, followed by assessment of biofilm viability by resazurin metabolic assay. The experiments were carried out with three technical replicates and repeated at least twice. The growth inhibition was calculated as a function of the percentage of the total bacterial inhibition using Equation (1), where AB is the OD600 of LB medium, and AT0 and ATf are the OD600 recorded at inoculating time and at the end of the assay. (1) % Inhibition=100 × [ 1 − [OD600 (Asample Tf− Asample T0)−(AB Tf − AB T0)/OD600 (Anegative control Tf− Anegative control T0)−(AB Tf − AB T0)]]
(§5) Resazurin sodium salt (Sigma-Aldrich, St. Louis, MI, USA) was dissolved in Milli-Q water at 0.2% (w/v) and filter sterilized. The solution was stored at −20 °C in the dark. The assay was performed as previously described with modification. The cultures were withdrawn, and the plates were washed three times with sterile water using the plate washer (BioTek). To remove the remaining water in the wells, the plates were tapped with autoclaved paper towels. An amount of 50 µL of diluted RSZ solution in LB medium was added into each well, followed by incubation at 37 °C for 5–6 h. A microplate reader (BioTek Synergy 2) was used to measure the fluorescence intensity (excitation 530 nm, emission 590 nm). Data collected were determined as a function of fluorescence percentage using Equation (2), where FB is the fluorescence of the diluted RSZ solution in LB medium in the absence of P. aeruginosa cells. (2) % Inhibition=[(Fnegative control −FB )−(Fsample −FB )/(Fnegative control − FB )]×100
For orientation: The colour change of resazurin is a common sign of viable cells or microbes.

In series [4] the test system is PAO1ΔpslA (Psl deletion mutant). The description is as above. The procedure:
as §3, §4, §5

Series [5] has as its system DNA damage reporter strain MDM-623. The experiment in a line: Cellular bioluminescent assay (DNA damage reporter). Particulars: 8 h; ciprofloxacin at 0.0625, 0.083, 0.25 and 25 µg/mL. The source says: Ciprofloxacin, a fluroquinolone antibiotic, has been extensively utilized to treat various bacterial infections. It targets bacterial DNA topoisomerase and DNA gyrase, which produce breakage of double-stranded DNA, ultimately leading to cell death. […] In the effort of identifying the mechanisms of action of test compounds, we employed a DNA damage reporter strain MDM-623, which was constructed based on the promoter-luciferase reporter gene. The increased luminescence readouts are indicative of gyrase inhibition-induced promoter upregulation through the recA pathway. […] Nevertheless, there was no difference in the response of MDM-623 upon exposure to test compounds and the solvent (Figure 5E). The above results may imply that test compounds are unlikely to be DNA gyrase inhibitors and that their mechanism of action is unrelated to that of ciprofloxacin.
The reporter strain MDM-623 was kindly provided by Dr. Timothy Opperman (Microbiotix, Inc., Worcester, MA, USA). The strain harbors a promoter region from PA0614 fused to Photorhabdus luminescens luciferase luxCDABE operon, which was constructed to respond to DNA damage. All experiments were carried out as previously described with minor modification. […] Luminescence was monitored using a BioTek Synergy H1 Hybrid microplate reader for 8 h at 30-min intervals. […]

Entries after “also recorded” stand apart in the source; their conditions may differ. Bounds are passed on as bounds.

With polymyxin B, the “outer membrane permeabilization (NPN fluorescence)” value in series [1] is given as “prominent fluorescence”.
The MIC is the lowest concentration that inhibits growth of the organism. Regarding `O=C(O)c1cn(C2CC2)c2cc(N3CCNCC3)c(F)cc2c1=O` [ciprofloxacin, reference compound], the MIC in [2] turned out to be 0.25 mg/L. The biofilm after treatment entry in the series on PAO1ΔpslA biofilms is recorded as “unable to form biofilms; also recorded: eradicated”. For the same compound, the cell phenotype entry in the series with PDO300Δalg8 biofilms is “long, filamentous phenotypes as well as small, round spheroplasts”; in the series with PAO1 biofilms, “long, filamentous phenotypes as well as small, round spheroplasts”; in the series on PDO300 biofilms it was “long, filamentous phenotypes as well as small, round spheroplasts”; in the series on PAO1ΔpelF biofilms, “long, filamentous phenotypes as well as small, round spheroplasts”. Further, the “biofilm response (reduction)” value in series [3] is ~ 60%. The bacterial growth inhibition entry in [4] (alone at 1/3 MIC) is recorded as “moderately inhibited”. For the same compound, in [4] (alone at 1/3 MIC), the “prevention of biofilm formation” value is given as “completely prevented”. The “reduction of bacterial growth” value in series [4] (alone at 1/3 and 1/4 MIC) was more than 40%. The “suppression of biofilm formation” value in [4] (alone at 1/3 and 1/4 MIC) is given as ~ 100%. Further, the “effect on survival of suspended cells” value in [4] (sub-lethal doses (1/3, 1/4 MIC) alone) is given as ~ 50%. The “luminescence response of DNA damage reporter (gyrase inhibition)” value in series [5] was “steadily enhanced”.
Consider `C[C@@H](O)[C@H]1C(=O)N2C(C(=O)O)=C(S[C@@H]3CN[C@H](C(=O)N(C)C)C3)[C@H](C)[C@H]12` [meropenem, reference compound], for which, in series [2], the MIC worked out at 0.375 mg/L.
Still for that read-out and setting: then `NC[C@H]1O[C@H](O[C@H]2[C@H](O)[C@@H](O[C@H]3O[C@H](CO)[C@@H](O)[C@H](N)[C@H]3O)[C@H](N)C[C@@H]2N)[C@H](N)C[C@@H]1O` [tobramycin, reference compound], with 2 mg/L.
